Assay results reported in US11076595B2, “1-(n,n-disubstituted carbamoyl) 4-(substituted sulfonyl)triazolin-5-one derivative, 4-(n,n-disubstituted carbamoyl) 1-(substituted sulfonyl)triazolin-5-one derivative, and herbicide containing said derivative as active ingredient” (HOKKO CHEMICAL INDUSTRY CO., LTD., priority 2017, dated 2021).

Tests used:
Assay type in all cases: in vivo
Echinochloa crus-galli [1] = assay: Test Example 11: herbicidal effect test by soil treatment in paddy field; conditions: 120 g/10a active ingredient, 14 days after treatment
Procedure, shortened: (§1)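 Weed suppression rate (%) was calculated as (1 − mean treated dry weight / mean untreated dry weight) × 100 at 14 days after treatment, two replicates per plot. Seeds were sown at 0–1 cm in flooded (about 3 cm) puddled paddy soil and treated immediately at 120 g active ingredient per 10 are.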

Lindernia pyxidaria [2] = assay: as above; conditions: 120 g/10a active ingredient, 14 days after treatment
Procedure, shortened: as §1

Monochoria vaginalis [3] = assay: as above; conditions: 120 g/10a active ingredient, 14 days after treatment
Procedure, shortened: as §1

Scirpus juncoides [4] = assay: as above; conditions: 120 g/10a active ingredient, 14 days after treatment
Procedure, shortened: as §1

Echinochloa crus-galli [5] = assay: Test Example 12: herbicidal effect test by treatment during growing period in paddy field; conditions: 120 g/10a; treatment seven days after sowing in flooded paddy pot; assessed 14 days after treatment
Procedure, shortened: (§2)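 Read-out: weed suppression (%) = (1 − treated/untreated mean dry weight) × 100, scored 14 days after treatment with two replications. Pots held puddled paddy soil, 30 seeds per species sown 0–1 cm, flooded ~3 cm. Post-emergence dropwise water application at 7 days after sowing, 120 g a.i./10 are.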

Lindernia pyxidaria [6] = assay: as above; conditions: 120 g/10a; treatment seven days after sowing in flooded paddy pot; assessed 14 days after treatment
Procedure, shortened: as §2

Monochoria vaginalis [7] = assay: as above; conditions: 120 g/10a; treatment seven days after sowing in flooded paddy pot; assessed 14 days after treatment
Procedure, shortened: as §2

Scirpus juncoides [8] = assay: as above; conditions: 120 g/10a; treatment seven days after sowing in flooded paddy pot; assessed 14 days after treatment
Procedure, shortened: as §2

Amaranthus viridis [9] = assay: Test Example 13: herbicidal effect test by soil treatment in upland field; conditions: 120 g/10a, 14 days after treatment
Procedure, shortened: (§3)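 Suppression rate (%) is calculated from mean plant dry weight in treated versus untreated plots, 14 days after treatment, with duplicate plots per concentration. Seeds (20 per species) are mixed into the surface centimetre of alluvial soil, and the diluted emulsifiable concentrate is sprayed onto the soil the following day at 120 g a.i. per 10 are.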

Chenopodium album [10] = assay: as above; conditions: 120 g/10a, 14 days after treatment
Procedure, shortened: as §3

Echinochloa crus-galli [11] = assay: as above; conditions: 120 g/10a, 14 days after treatment
Procedure, shortened: as §3

crabgrass [12] = assay: as above; conditions: 120 g/10a, 14 days after treatment
Procedure, shortened: as §3

Chenopodium album [13] = assay: Test Example 14: herbicidal effect test by foliage treatment in upland field; conditions: 7 days after sowing, 120 g/10a, 14 days after treatment
Procedure, shortened: (§4)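 Dose: 120 g a.i. per 10 are, sprayed in 100 L water per 10 are onto pots seven days post-sowing in alluvial soil. After 14 days, weed dry weight relative to untreated plots gave suppression rate (%); duplicate plots per concentration.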

crabgrass [14] = assay: as above; conditions: 7 days after sowing, 120 g/10a, 14 days after treatment
Procedure, shortened: as §4

Amaranthus viridis [15] = assay: as above; conditions: 7 days after sowing, 120 g/10a, 14 days after treatment
Procedure, shortened: as §4

Echinochloa crus-galli [16] = assay: as above; conditions: 7 days after sowing, 120 g/10a, 14 days after treatment
Procedure, shortened: as §4

| Compound | Weed suppression rate (%) Echinochloa crus-galli (Echinochloa crus-galli [1]) [%] | Weed suppression rate (%) Lindemia pyxidaria (Lindernia pyxidaria [2]) [%] | Weed suppression rate (%) Monochoria vaginalis (Monochoria vaginalis [3]) [%] | Weed suppression rate (%) Scirpus juncoides (Scirpus juncoides [4]) [%] | Weed suppression rate (%) Echinochloa crus-galli (Echinochloa crus-galli [5]) [%] | Weed suppression rate (%) Lindemia pyxidaria (Lindernia pyxidaria [6]) [%] | Weed suppression rate (%) Monochoria vaginalis (Monochoria vaginalis [7]) [%] | Weed suppression rate (%) Scirpus juncoides (Scirpus juncoides [8]) [%] | herbicidal effect, Amaranthus viridis (Amaranthus viridis [9]) [%] | herbicidal effect, Chenopodium album (Chenopodium album [10]) [%] | herbicidal effect, Echinochloa crus-galli (Echinochloa crus-galli [11]) [%] | herbicidal effect, Crabgrass (crabgrass [12]) [%] | herbicidal effect, Chenopodium album (Chenopodium album [13]) [%] | herbicidal effect, Crabgrass (crabgrass [14]) [%] | herbicidal effect, Amaranthus viridis (Amaranthus viridis [15]) [%] | herbicidal effect, Echinochloa crus-galli (Echinochloa crus-galli [16]) [%] |
| --- | --- | --- | --- | --- | --- | --- | --- | --- | --- | --- | --- | --- | --- | --- | --- | --- |
| CC(C)N(C(=O)n1cnn(S(=O)(=O)N(C)C)c1=O)c1ccc(F)cc1 [Compound 11-1056] | 90 | 80 | 80 | 90 | 90 | 80 | 80 | 90 | 90 | 80 | 80 | 90 | 80 | 90 | 90 | 80 |
| CC(C)N(C(=O)n1cnn(S(=O)(=O)N(C)C)c1=O)c1ccc(F)cc1F [Compound 11-1064] | 100 | 100 | 100 | 100 | 100 | 90 | 90 | 90 | 90 | 90 | 100 | 100 | 80 | 90 | 70 | 90 |
| CC(C)N(C(=O)n1cnn(S(=O)(=O)N(C)C)c1=O)c1ccc(F)cc1Cl [Compound 11-1071] | 90 | 80 | 80 | 90 | 90 | 80 | 80 | 90 | 90 | 80 | 80 | 90 | 80 | 90 | 90 | 80 |
| CC(C)N(C(=O)n1cnn(S(=O)(=O)N(C)C)c1=O)c1ccc(Cl)cn1 [Compound 11-1090] | 100 | 100 | 60 | 90 | 100 | 90 | 60 | 90 | 50 | 50 | 80 | 90 | 40 | 90 | 40 | 90 |
| CCN(C)S(=O)(=O)n1ncn(C(=O)N(c2ccc(F)cc2F)C(C)C)c1=O [Compound 11-1098] | 100 | 100 | 80 | 100 | 100 | 70 | 80 | 70 | 90 | 100 | 100 | 100 | 80 | 90 | 90 | 80 |
| CC(C)CN(C)S(=O)(=O)n1ncn(C(=O)N(c2ccc(F)cc2F)C(C)C)c1=O [Compound 11-1101] | 90 | 90 | 90 | 90 | 90 | 80 | 80 | 90 | 90 | 80 | 80 | 90 | 80 | 90 | 90 | 80 |
| CC(C)N(C(=O)n1cnn(S(=O)(=O)N2CCCCC2)c1=O)c1ccc(F)cc1F [Compound 11-1102] | 100 | 100 | 90 | 90 | 100 | 70 | 80 | 90 | 90 | 100 | 100 | 100 | 80 | 90 | 90 | 80 |
